Measured values taken from the NIST ThermoML archive (doi:10.1016/j.jct.2019.03.007).
Numbers after ± are expanded uncertainties.

Test: molar heat capacity at constant pressure
Settings: 101.33 kPa, Crystal 1, DSC

O=[N+]([O-])[O-].O=[N+]([O-])[O-].[Ca+2] [calcium nitrate]
Settings | molar heat capacity at constant pressure [J/K/mol]
418 K | 161.73 ± 11
418.18 K | 170.76 ± 12
418.78 K | 162.59 ± 11
419 K | 162.11 ± 11
419.18 K | 170.93 ± 12
419.78 K | 162.75 ± 11
420 K | 162.15 ± 11
420.18 K | 171.07 ± 12
420.78 K | 162.91 ± 11
421 K | 162.33 ± 11
421.18 K | 171.17 ± 12
421.78 K | 163.06 ± 11
422 K | 162.71 ± 11
422.18 K | 171.32 ± 12
422.78 K | 163.22 ± 11
423 K | 162.96 ± 11
423.18 K | 171.45 ± 12
423.78 K | 163.38 ± 11
424 K | 163.14 ± 11
424.18 K | 171.55 ± 12
424.78 K | 163.54 ± 11
425 K | 163.33 ± 11
425.18 K | 171.73 ± 12
425.78 K | 163.69 ± 11
426 K | 163.37 ± 11
426.18 K | 171.87 ± 12
426.78 K | 163.85 ± 11
427 K | 163.76 ± 11
427.18 K | 172.05 ± 12
427.78 K | 164.01 ± 11
428 K | 163.77 ± 11
428.18 K | 172.26 ± 12
428.78 K | 164.17 ± 11
429 K | 163.7 ± 11
429.18 K | 172.5 ± 12
429.78 K | 164.33 ± 11
430 K | 163.8 ± 11
430.18 K | 172.74 ± 12
430.78 K | 164.49 ± 11
431 K | 163.76 ± 11
431.18 K | 173.01 ± 12
431.78 K | 164.65 ± 11
432 K | 163.92 ± 11
432.18 K | 173.21 ± 12
432.78 K | 164.81 ± 11
433 K | 164.38 ± 11
433.18 K | 173.43 ± 12
433.78 K | 164.96 ± 12
434 K | 164.69 ± 11
434.18 K | 173.63 ± 12
434.78 K | 165.13 ± 12
435 K | 164.65 ± 11
435.18 K | 173.82 ± 12
435.78 K | 165.29 ± 12
436 K | 164.7 ± 11
436.18 K | 174.04 ± 12
436.78 K | 165.45 ± 12
437 K | 164.8 ± 12
437.18 K | 174.21 ± 12
437.78 K | 165.61 ± 12
438 K | 165.07 ± 12
438.18 K | 174.35 ± 12
438.78 K | 165.77 ± 12
439 K | 165.44 ± 12
439.18 K | 174.62 ± 12
439.78 K | 165.93 ± 12
440 K | 165.84 ± 12
440.18 K | 174.82 ± 12
440.78 K | 166.09 ± 12
441 K | 165.74 ± 12
441.18 K | 175.02 ± 12
441.78 K | 166.26 ± 12
442 K | 165.94 ± 12
442.18 K | 175.16 ± 12
442.78 K | 166.42 ± 12
443 K | 166.4 ± 12
443.18 K | 175.33 ± 12
443.78 K | 166.58 ± 12
444 K | 166.4 ± 12
444.18 K | 175.47 ± 12
444.78 K | 166.75 ± 12
445 K | 166.55 ± 12
445.18 K | 175.65 ± 12
445.78 K | 166.92 ± 12
446 K | 166.46 ± 12
446.18 K | 175.77 ± 12
446.78 K | 167.08 ± 12
447 K | 166.39 ± 12
447.18 K | 175.94 ± 12
447.78 K | 167.25 ± 12
448 K | 166.47 ± 12
448.18 K | 176.08 ± 12
448.78 K | 167.41 ± 12
449 K | 166.51 ± 12
449.18 K | 176.2 ± 12
449.78 K | 167.57 ± 12
450 K | 166.69 ± 12
450.18 K | 176.36 ± 12
450.78 K | 167.73 ± 12
451 K | 166.81 ± 12
451.18 K | 176.52 ± 12
451.78 K | 167.88 ± 12
452 K | 166.99 ± 12
452.18 K | 176.72 ± 12
452.78 K | 168.04 ± 12
453 K | 167.12 ± 12
453.18 K | 176.94 ± 12
453.78 K | 168.19 ± 12
454 K | 167.19 ± 12
454.18 K | 177.19 ± 12
454.78 K | 168.34 ± 12
455 K | 167.39 ± 12
455.18 K | 177.36 ± 12
455.78 K | 168.49 ± 12
456 K | 167.61 ± 12
456.18 K | 177.51 ± 12
456.78 K | 168.64 ± 12
457 K | 167.67 ± 12
457.18 K | 177.68 ± 12
457.78 K | 168.79 ± 12
458 K | 167.76 ± 12
458.18 K | 177.88 ± 12
458.78 K | 168.94 ± 12
459 K | 167.66 ± 12
459.18 K | 178.01 ± 12
459.78 K | 169.09 ± 12
460 K | 167.65 ± 12
460.18 K | 178.19 ± 12
